Measurements published in patent US12227501B2, “3-amino-2-[2-(acylamino)pyridin-4-yl]-1,5,6,7-tetrahydro-4h-pyrrolo[3,2-c]pyridin-4-one as CSNK1 inhibitors” (Bayer Aktiengesellschaft, priority 2019, dated 2025).
pIC50: −log10 of the molar value. Where “and” joins values, the source holds several entries; their conditions need not be identical. Equal entries are not always repeated. Structures can show the parent of a compound that is named as a salt. Where two headings read alike, the source gives them in different places.

Legend:
Type in all cases: biochemical
human CSNK1A1 [1] = target: T1, human CSNK1A1 (Homo sapiens (Human), UniProt P48729); experiment: CSNK1A1 Assay 2 (ADP-Glo, 1 μM ATP); details: substrate biotin-Ahx-KRRRAL-pS-VASLPGL, read-out: CSNK1A1 Assay 2 IC50 [mol/l] (median)
Outline: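 Full-length human CSNK1A1 as an N-terminal GST fusion (baculovirus/insect cells) with biotinylated peptide substrate biotin-Ahx-KRRRAL-pS-VASLPGL and 1 μM ATP, in HEPES pH 7.5 buffer. Compounds were pre-incubated with enzyme (~0.0375 ng/μL) for 15 min at 22 °C. Generated ADP was read by ADP-Glo luminescence as the activity measure.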

human CSNK1A1 [2] = target: T1, human CSNK1A1; experiment: CSNK1A1 High ATP Assay (ADP-Glo, 1 mM ATP); details: read-out: CSNK1A1 high ATP assay IC50 [mol/l] (median)
Outline: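 Kinase activity taken as ADP generated, quantified by ADP-Glo luminescence after 1 h ATP depletion and 1 h detection at 22 °C. Enzyme is GST–full-length human CSNK1A1 (insect cell-expressed), pre-bound to compound for 15 min, with phosphopeptide substrate and 1 mM ATP.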

human CSNK1D = human CSNK1D (Homo sapiens (Human), UniProt P48730); experiment: CSNK1D Assay (ADP-Glo, 1 μM ATP); details: read-out: CSNK1D IC50 [mol/l] (median)
Outline: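 Activity is read as ADP produced, by ADP-Glo luminescence after 1 h steps at 22 °C. The reaction uses 1 μM ATP, a biotinylated peptide and insect-cell-expressed GST–CSNK1D (about 0.5 ng/μL) in pH 7.5 HEPES buffer, with 15 min compound–enzyme preincubation.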

[3] = target: wild-type Epidermal Growth Factor Receptor (EGFR) (Homo sapiens (Human), UniProt P00533); experiment: WT-EGFR Kinase Assay (TR-FRET, 2 mM ATP)
[4] = EGFR Wildtyp- 2 mM ATP IC50 [mol/l] (median)
[5] = read-out: EGFR Wildtyp- 2 mM ATP IC50 [mol/l] (median)

Sequence of wild-type Epidermal Growth Factor Receptor (EGFR) (P00533 669-1210): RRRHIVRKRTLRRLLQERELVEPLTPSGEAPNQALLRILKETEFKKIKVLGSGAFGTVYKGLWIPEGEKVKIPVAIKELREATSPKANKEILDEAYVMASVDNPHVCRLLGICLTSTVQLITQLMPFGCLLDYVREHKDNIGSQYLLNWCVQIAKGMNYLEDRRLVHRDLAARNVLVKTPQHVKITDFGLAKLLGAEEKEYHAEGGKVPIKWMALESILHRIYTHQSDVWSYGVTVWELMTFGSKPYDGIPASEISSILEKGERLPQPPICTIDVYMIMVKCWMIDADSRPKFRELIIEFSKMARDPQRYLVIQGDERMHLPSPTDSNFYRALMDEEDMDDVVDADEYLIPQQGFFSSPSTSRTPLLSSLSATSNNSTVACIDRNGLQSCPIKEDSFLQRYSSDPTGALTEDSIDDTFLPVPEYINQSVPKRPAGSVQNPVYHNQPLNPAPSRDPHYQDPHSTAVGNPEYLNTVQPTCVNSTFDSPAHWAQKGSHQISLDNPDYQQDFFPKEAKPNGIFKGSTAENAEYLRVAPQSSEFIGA
T1 sequence (P48729 whole entry, the tested form may be a part): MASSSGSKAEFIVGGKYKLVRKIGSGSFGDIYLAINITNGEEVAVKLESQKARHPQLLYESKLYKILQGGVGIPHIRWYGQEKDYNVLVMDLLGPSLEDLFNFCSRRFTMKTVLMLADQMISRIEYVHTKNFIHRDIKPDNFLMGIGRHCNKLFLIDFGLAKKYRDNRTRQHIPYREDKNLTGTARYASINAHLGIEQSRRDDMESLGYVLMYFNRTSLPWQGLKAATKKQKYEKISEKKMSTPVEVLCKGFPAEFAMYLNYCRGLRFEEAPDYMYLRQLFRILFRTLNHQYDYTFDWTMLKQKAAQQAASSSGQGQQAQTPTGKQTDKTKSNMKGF
Sequence of human CSNK1D (P48730 whole entry): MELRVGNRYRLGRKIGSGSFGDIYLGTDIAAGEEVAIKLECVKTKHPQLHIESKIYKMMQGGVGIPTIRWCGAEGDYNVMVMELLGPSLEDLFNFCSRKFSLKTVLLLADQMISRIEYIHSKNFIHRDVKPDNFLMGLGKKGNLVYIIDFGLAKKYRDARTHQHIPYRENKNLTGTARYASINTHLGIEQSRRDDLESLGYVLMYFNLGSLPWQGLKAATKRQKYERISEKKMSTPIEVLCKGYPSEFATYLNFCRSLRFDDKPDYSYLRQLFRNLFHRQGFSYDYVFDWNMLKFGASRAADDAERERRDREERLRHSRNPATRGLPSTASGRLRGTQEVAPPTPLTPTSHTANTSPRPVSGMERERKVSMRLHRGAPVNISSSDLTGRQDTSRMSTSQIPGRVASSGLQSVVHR

Compound	pIC50 (human CSNK1A1 [1])	pIC50 (human CSNK1A1 [2])	pIC50 (human CSNK1D)	pIC50 [3, 4]	pIC50 [3, 5]	IC50 [3, 4]
Cc1ccccc1Nc1c(-c2ccnc(NC(=O)C(CC(F)F)c3ccc(F)cc3)c2)[nH]c2c1C(=O)NC(C)(C)C2 (single isomer, unassigned; enantiomer 1) [Example 136, N-{4-[6,6-dimethyl-3-(2-methylanilino)-4-oxo-4,5,6,7-tetrahydro-1H-pyrrolo[3,2-c]pyridin-2-yl]pyridin-2-yl}-4,4-difluoro-2-(4-fluorophenyl)butanamide (Enantiomer 1)]	7.86	7.34	7.34	< 4.70	–	–
Cc1ccccc1Nc1c(-c2ccnc(NC(=O)C(C)c3ccc(F)cc3)c2)[nH]c2c1C(=O)NC(C)(C)C2 (single isomer, unassigned; enantiomer 2) [Example 134, N-{4-[6,6-dimethyl-3-(2-methylanilino)-4-oxo-4,5,6,7-tetrahydro-1H-pyrrolo[3,2-c]pyridin-2-yl]pyridin-2-yl}-2-(4-fluorophenyl)propanamide (Enantiomer 2)]	7.72	6.52	7.34	< 4.70	–	–
CN1C(=O)c2c([nH]c(-c3ccnc(NC(=O)C(CC(F)F)c4ccc(F)cc4)c3)c2Nc2ccccc2)CC12CCC2 (racemic) [Example 160, N-[4-(3′-anilino-5′-methyl-4′-oxo-1′,4′,5′,7′-tetrahydrospiro[cyclobutane-1,6′-pyrrolo[3,2-c]pyridin]-2′-yl)pyridin-2-yl]-4,4-difluoro-2-(4-fluorophenyl)butanamide (Racemate)]	7.88	7.57	7.80	< 4.70	–	–
CC1(C)Cc2[nH]c(-c3ccnc(NC(=O)C(CN)c4ccc(F)cc4)c3)c(Nc3ccccc3)c2C(=O)N1 (racemic) [Example 139, 3-amino-N-[4-(3-anilino-6,6-dimethyl-4-oxo-4,5,6,7-tetrahydro-1H-pyrrolo[3,2-c]pyridin-2-yl)pyridin-2-yl]-2-(4-fluorophenyl)propanamide-hydrogen chloride salt (Racemate)]	8.49	7.38	8.11	6.17	–	–
O=C(Cc1ccc(F)cc1)Nc1cc(-c2[nH]c3c(c2Nc2ccccc2)C(=O)N(CC2CC2)CC3)ccn1 [Example 20, N-{4-[3-anilino-5-(cyclopropylmethyl)-4-oxo-4,5,6,7-tetrahydro-1H-pyrrolo[3,2-c]pyridin-2-yl]pyridin-2-yl}-2-(4-fluorophenyl)acetamide]	8.01	5.78	7.62	4.74	< 4.70	–
CC1(C)Cc2[nH]c(-c3ccnc(NC(=O)C(CC(F)F)c4ccc(F)cc4)c3)c(Nc3ccccc3)c2C(=O)N1 (single isomer, unassigned; (+)) [Example 49, (+)-N-[4-(3-anilino-6,6-dimethyl-4-oxo-4,5,6,7-tetrahydro-1H-pyrrolo[3,2-c]pyridin-2-yl)pyridin-2-yl]-4,4-difluoro-2-(4-fluorophenyl)butanamide]	8.34	7.71	8.14	< 4.70	–	–
O=C1NC2(CCC2)Cc2[nH]c(-c3ccnc(NC(=O)C(CC(F)F)c4ccc(F)cc4)c3)c(Nc3ccccc3)c21 (single isomer, unassigned; (+)) [Example 55, (+)-N-[4-(3′-anilino-4′-oxo-1′,4′,5′,7′-tetrahydrospiro[cyclobutane-1,6′-pyrrolo[3,2-c]pyridin]-2′-yl)pyridin-2-yl]-4,4-difluoro-2-(4-fluorophenyl)butanamide]	8.37	8.04	8.36	5.93	–	–
CC1(C)Cc2[nH]c(-c3ccnc(NC(=O)Cc4ccc(F)cc4)c3)c(Nc3ccccc3F)c2C(=O)N1 [Example 86, N-{4-[3-(2-fluoroanilino)-6,6-dimethyl-4-oxo-4,5,6,7-tetrahydro-1H-pyrrolo[3,2-c]pyridin-2-yl]pyridin-2-yl}-2-(4-fluorophenyl)acetamide]	8.35	6.96	8.02	–	5.19	–
CN(C)CCCC(C(=O)Nc1cc(-c2[nH]c3c(c2Nc2ccccc2)C(=O)N(C)CC3)ccn1)c1ccccc1 (single isomer, unassigned; (-)) [Example 59, (−)-N-[4-(3-anilino-5-methyl-4-oxo-4,5,6,7-tetrahydro-1H-pyrrolo[3,2-c]pyridin-2-yl)pyridin-2-yl]-5-(dimethylamino)-2-phenylpentanamide]	7.03	5.14	7.06	4.79	–	–
CN1C(=O)c2c([nH]c(-c3ccnc(NC(=O)C(CC(F)F)c4ccc(F)cc4)c3)c2Nc2ccccc2F)CC1(C)C (racemic) [Example 45, 4,4-difluoro-N-{4-[3-(2-fluoroanilino)-5,6,6-trimethyl-4-oxo-4,5,6,7-tetrahydro-1H-pyrrolo[3,2-c]pyridin-2-yl]pyridin-2-yl}-2-(4-fluorophenyl)butanamide]	7.79	6.56	7.88	< 4.70	–	–
CN1CCc2[nH]c(-c3ccnc(NC(=O)Cc4cnccn4)c3)c(Nc3ccccc3)c2C1=O [Example 114, N-[4-(3-anilino-5-methyl-4-oxo-4,5,6,7-tetrahydro-1H-pyrrolo[3,2-c]pyridin-2-yl)pyridin-2-yl]-2-(pyrazin-2-yl)acetamide]	8.61	6.64	8.33	–	5.69	–
O=C(Cc1ccc(F)cc1)Nc1cc(-c2[nH]c3c(c2Nc2ccccc2)C(=O)NC2(CCC2)C3)ccn1 [Example 57, N-[4-(3′-anilino-4′-oxo-1′,4′,5′,7′-tetrahydrospiro[cyclobutane-1,6′-pyrrolo[3,2-c]pyridin]-2′-yl)pyridin-2-yl]-2-(4-fluorophenyl)acetamide]	8.70	7.99	8.51	–	6.06	–
CC(C)(O)CN1CCc2[nH]c(-c3ccnc(NC(=O)Cc4ccc(F)cc4)c3)c(Nc3ccccc3)c2C1=O [Example 23, N-{4-[3-anilino-5-(2-hydroxy-2-methylpropyl)-4-oxo-4,5,6,7-tetrahydro-1H-pyrrolo[3,2-c]pyridin-2-yl]pyridin-2-yl}-2-(4-fluorophenyl)acetamide]	7.57	5.58	7.43	–	5.14	–
CN1CCc2[nH]c(-c3ccnc(NC(=O)C(CO)c4ccc(F)cc4)c3)c(Nc3ccccc3)c2C1=O (single isomer, unassigned) [Example 19, N-[4-(3-anilino-5-methyl-4-oxo-4,5,6,7-tetrahydro-1H-pyrrolo[3,2-c]pyridin-2-yl)pyridin-2-yl]-2-(4-fluorophenyl)-3-hydroxypropanamide]	8.77	7.97	8.18	–	–	> 20 µM (5×) and 16.1 µM
CC1(C)Cc2[nH]c(-c3ccnc(NC(=O)C(CC(F)F)c4ccc(F)cc4)c3)c(Nc3cccc(F)n3)c2C(=O)N1 (racemic) [Example 128, 4,4-difluoro-2-(4-fluorophenyl)-N-(4-{3-[(6-fluoropyridin-2-yl)amino]-6,6-dimethyl-4-oxo-4,5,6,7-tetrahydro-1H-pyrrolo[3,2-c]pyridin-2-yl}pyridin-2-yl)butanamide (Racemate)]	8.15	7.50	7.94	< 4.70	–	–
CCN1CCc2[nH]c(-c3ccnc(NC(=O)C(C)c4ccc(F)cc4)c3)c(Nc3ccccc3)c2C1=O (centres unmarked) [Example 21, N-[4-(3-anilino-5-ethyl-4-oxo-4,5,6,7-tetrahydro-1H-pyrrolo[3,2-c]pyridin-2-yl)pyridin-2-yl]-2-(4-fluorophenyl)propanamide]	8.12	6.46	7.67	–	< 4.70	–
CC1(C)Cc2[nH]c(-c3ccnc(NC(=O)C(CNC(=O)OC(C)(C)C)c4ccc(F)cc4)c3)c(Nc3ccccc3)c2C(=O)N1 (racemic) [Example 138, tert-butyl [3-{[4-(3-anilino-6,6-dimethyl-4-oxo-4,5,6,7-tetrahydro-1H-pyrrolo[3,2-c]pyridin-2-yl)pyridin-2-yl]amino}-2-(4-fluorophenyl)-3-oxopropyl]carbamate (Racemate)]	7.78	6.37	7.65	4.95	–	–
CN1CCc2[nH]c(-c3ccnc(NC(=O)Cc4cccnc4)c3)c(Nc3ccccc3)c2C1=O [Example 67, N-[4-(3-anilino-5-methyl-4-oxo-4,5,6,7-tetrahydro-1H-pyrrolo[3,2-c]pyridin-2-yl)pyridin-2-yl]-2-(pyridin-3-yl)acetamide]	8.62	7.35	8.42	–	6.00	–
CC(C(=O)Nc1cc(-c2[nH]c3c(c2Nc2ccccc2)C(=O)N(C)CC3)ccn1)c1ccc(Cl)cc1 (racemic) [Example 79, N-[4-(3-anilino-5-methyl-4-oxo-4,5,6,7-tetrahydro-1H-pyrrolo[3,2-c]pyridin-2-yl)pyridin-2-yl]-2-(4-chlorophenyl)propanamide]	8.05	6.47	7.71	< 4.70	–	–
